According to patent US20090143279A1 (priority 2007, published 2009):
Read-outs that look alike come from different tables or passages of the source.

How the values were obtained:
mtOXPHOS transcripts = format: cell-based, mouse
[1] = tested on: cellular dehydrogenase activity
[2] = tested on: mitochondrial membrane potential; format: cell-based, mouse
OXPHOS gene expression = format: cell-based, mouse
nuOXPHOS transcripts = format: cell-based, mouse
cytochrome c = format: cell-based, mouse
reactive oxygen species = format: cell-based, mouse
[3] = 20 μM, composite Z-score vs DMSO
[4] = normalized composite Z-score vs mock-treated (DMSO) wells, Conc 20 μM
[5] = composite Z-score vs DMSO, Conc 20 μM
[6] = composite Z-score vs mock-treated (DMSO) wells, Conc 20 μM
[7] = composite Z-score vs mock-treated (DMSO) wells, concentration of each compound in μM

`NC(=O)c1cc([N+](=O)[O-])cc([N+](=O)[O-])c1` [nitromide] was tested, and the mitoOX (mtOXPHOS transcripts; [3]) was −0.086, the MTT [1, 3] was −1.071 and the ΔΨm [2, 3] was 1.648. It also gave a Viability (C2C12 myotubes; [3]) of −0.259, a GE-HTS (OXPHOS gene expression; [3]) of −0.128 and a nucOX (nuOXPHOS transcripts; [3]) of −0.100. The cyt c (cytochrome c; [3]) was −0.346 and the ROS (reactive oxygen species; [3]) was 1.299.
With `CN1Cc2c(N)cccc2C(c2ccccc2)C1` (stereo not drawn) [nomifensin] the mitoOX (mtOXPHOS transcripts) was 0.181, the mitoOX (mtOXPHOS transcripts; [3]) was −0.026 and the MTT [1] was −0.534. For the same compound, the MTT [1, 3] was −0.885, the ΔΨm [2] was −0.329 and the ΔΨm [2, 3] was −0.059. It also gave a Viability (C2C12 myotubes) of 0.121, a Viability (C2C12 myotubes; [3]) of 0.525 and a GE-HTS (OXPHOS gene expression) of −0.331. It also gave a GE-HTS (OXPHOS gene expression; [3]) of −0.131, a nucOX (nuOXPHOS transcripts) of −0.571 and a nucOX (nuOXPHOS transcripts; [3]) of −0.169. It also gave a cyt c (cytochrome c) of −1.298, a cyt c (cytochrome c; [3]) of −1.233 and an ROS (reactive oxygen species) of 3.133. The ROS (reactive oxygen species; [3]) was 3.112.
`CCCCC[C@H](CC(=O)O)C(=O)O` [nonic acid] was tested, and the mitoOX (mtOXPHOS transcripts; [4]) was 0.061, the MTT [1, 4] was −1.857 and the ΔΨm [2, 4] was −0.931. The Viability (C2C12 myotubes; [4]) was −1.043, the GE-HTS (OXPHOS gene expression; [4]) was −0.080 and the nucOX (nuOXPHOS transcripts; [4]) was −0.104. It also gave a cyt c (cytochrome c; [4]) of −0.133 and an ROS (reactive oxygen species; [4]) of 1.211.
Compound `Cc1cc(O)c(C=O)c2c1C(=O)Oc1c(C)c(O)c3c(c1O2)C(O)OC3=O` (stereo not drawn) [norstictic acid] has a mitoOX (mtOXPHOS transcripts; [5]) of −1.023, a mitoOX (mtOXPHOS transcripts; [6]) of −0.148 and an MTT [1, 5] of −0.613. The MTT [1, 6] was −0.567, the ΔΨm [2, 5] was −0.628 and the ΔΨm [2, 6] was 0.903. It also gave a Viability (C2C12 myotubes; [5]) of 0.730, a Viability (C2C12 myotubes; [6]) of −0.899 and a GE-HTS (OXPHOS gene expression; [5]) of −0.800. For the same compound, the GE-HTS (OXPHOS gene expression; [6]) was 0.518, the nucOX (nuOXPHOS transcripts; [5]) was −0.639 and the nucOX (nuOXPHOS transcripts; [6]) was 0.774. The cyt c (cytochrome c; [5]) was 0.467, the cyt c (cytochrome c; [6]) was 0.471 and the ROS (reactive oxygen species; [5]) was −0.426. The ROS (reactive oxygen species; [6]) was 0.560.
Work on `C[C@@H]1[C@H](O)[C@@H](C)/C=C/C=C/CC/C=C/C=C/C=C/C=C/C(O[C@H]2O[C@H](C)[C@@H](O)[C@H](N)[C@@H]2O)CC2O[C@](O)(CC(O)C(O)CCC(O)CC(O)CC(O)CC(=O)O[C@H]1C)CC(O)C2C(=O)O` (stereo partly drawn) [nystatin] yielded a mitoOX (mtOXPHOS transcripts; [5]) of 0.289, an MTT [1, 5] of 0.161 and a ΔΨm [2, 5] of −0.356. The Viability (C2C12 myotubes; [5]) was 0.794, the GE-HTS (OXPHOS gene expression; [5]) was 0.326 and the nucOX (nuOXPHOS transcripts; [5]) was 0.284. The cyt c (cytochrome c; [5]) was −0.059 and the ROS (reactive oxygen species; [5]) was −0.043.
For `C[C@@H]1[C@H](O)[C@@H](C)/C=C/C=C/CC/C=C/C=C/C=C/C=C/C(O[C@H]2O[C@H](C)[C@@H](O)[C@H](N)[C@@H]2O)CC2O[C@](O)(CC(O)C(O)CCC(O)CC(O)CC(O)CC(=O)O[C@H]1C)CC(O)C2C(=O)O` (stereo partly drawn) [nystatine], the mitoOX (mtOXPHOS transcripts; [7]) was −0.683, the MTT [1, 7] was −1.147 and the ΔΨm [2, 7] was −0.660. The Viability (C2C12 myotubes; [7]) was −0.430, the GE-HTS (OXPHOS gene expression; [7]) was −0.436 and the nucOX (nuOXPHOS transcripts; [7]) was −0.272. It also gave a cyt c (cytochrome c; [7]) of 0.061 and an ROS (reactive oxygen species; [7]) of 0.765.
`CC1(C)OC(=O)C=CC2(C)C1CC(O)C1(C)C2CCC2(C)C(c3ccoc3)OC(=O)C3OC321` (stereo not drawn) [obacunol] gave a mitoOX (mtOXPHOS transcripts; [6]) of −0.734, an MTT [1, 6] of −0.982 and a ΔΨm [2, 6] of 0.464. The Viability (C2C12 myotubes; [6]) was 2.016, the GE-HTS (OXPHOS gene expression; [6]) was −0.906 and the nucOX (nuOXPHOS transcripts; [6]) was −0.927. For the same compound, the cyt c (cytochrome c; [6]) was 0.859 and the ROS (reactive oxygen species; [6]) was −0.134.
Work on `C=C(C)[C@H]1COc2cc3oc(=O)ccc3cc2O1` [obliquin] yielded a mitoOX (mtOXPHOS transcripts; [6]) of 0.105, an MTT [1, 6] of −0.268 and a ΔΨm [2, 6] of 0.088. The Viability (C2C12 myotubes; [6]) was 0.539, the GE-HTS (OXPHOS gene expression; [6]) was −0.313 and the nucOX (nuOXPHOS transcripts; [6]) was −0.459. It also gave a cyt c (cytochrome c; [6]) of −1.172 and an ROS (reactive oxygen species; [6]) of 0.977.
`C[C@@H]([C@H]1OC(C)(C)[C@@H](O)[C@H]1O)[C@@H]1CC[C@]2(C)C3=CC[C@H]4C(C)(C)C(=O)CC[C@]4(C)[C@H]3CC[C@@]12C` [odoratone] showed a mitoOX (mtOXPHOS transcripts; [6]) of −0.873, an MTT [1, 6] of −1.060 and a ΔΨm [2, 6] of 0.367. For the same compound, the Viability (C2C12 myotubes; [6]) was 0.542, the GE-HTS (OXPHOS gene expression; [6]) was −0.994 and the nucOX (nuOXPHOS transcripts; [6]) was −0.988. The cyt c (cytochrome c; [6]) was 0.707 and the ROS (reactive oxygen species; [6]) was 0.083.
`CC1COc2c(N3CCN(C)CC3)c(F)cc3c(=O)c(C(=O)O)cn1c23` (stereo not drawn) [ofloxacin] was tested, and the mitoOX (mtOXPHOS transcripts) was 0.353, the mitoOX (mtOXPHOS transcripts; [3]) was −0.041 and the MTT [1] was −0.967. For the same compound, the MTT [1, 3] was −1.248, the ΔΨm [2] was −0.891 and the ΔΨm [2, 3] was −0.281. For the same compound, the Viability (C2C12 myotubes) was −0.425, the Viability (C2C12 myotubes; [3]) was −1.148 and the GE-HTS (OXPHOS gene expression) was 0.182. The GE-HTS (OXPHOS gene expression; [3]) was −0.458, the nucOX (nuOXPHOS transcripts) was 0.059 and the nucOX (nuOXPHOS transcripts; [3]) was −0.622. It also gave a cyt c (cytochrome c) of 0.492, a cyt c (cytochrome c; [3]) of 0.309 and an ROS (reactive oxygen species) of 0.908. For the same compound, the ROS (reactive oxygen species; [3]) was −0.182.
Compound `CC1(C)CC[C@]2(C(=O)O)CC[C@]3(C)C(=CC[C@@H]4[C@@]5(C)CC[C@H](O)C(C)(C)[C@@H]5CC[C@]43C)[C@@H]2C1` [oleanoic acid] has a mitoOX (mtOXPHOS transcripts; [6]) of −1.014, an MTT [1, 6] of −0.720 and a ΔΨm [2, 6] of −0.910. For the same compound, the Viability (C2C12 myotubes; [6]) was 0.492, the GE-HTS (OXPHOS gene expression; [6]) was −1.379 and the nucOX (nuOXPHOS transcripts; [6]) was −1.408. It also gave a cyt c (cytochrome c; [6]) of 0.754 and an ROS (reactive oxygen species; [6]) of −0.144.
`Cc1cc(O)cc(O)c1C(=O)O` [orsellinic acid] gave a mitoOX (mtOXPHOS transcripts; [6]) of −0.333, an MTT [1, 6] of −1.311 and a ΔΨm [2, 6] of −0.846. The Viability (C2C12 myotubes; [6]) was −0.320, the GE-HTS (OXPHOS gene expression; [6]) was −0.348 and the nucOX (nuOXPHOS transcripts; [6]) was −0.350. For the same compound, the cyt c (cytochrome c; [6]) was −0.015 and the ROS (reactive oxygen species; [6]) was 1.236.
